Measured values published in article PMC6246682, “Structural Basis of Tau Interaction With BIN1 and Regulation by Tau Phosphorylation” (Frontiers in Molecular Neuroscience, 2018).

Key:
[1] = target: T1, BIN1 SH3 domain (Homo sapiens, UniProt O00499); experiment: NMR chemical shift perturbation titration, dissociation constant determination; type: binding; conditions: peptide/BIN1 SH3 molar ratios 0, 0.5, 1, 2, 4, 8 and 12; 1H-15N HSQC
T1 construct: The BIN1 isoform 1 and BIN1 SH3 domain were expressed and purified as previously described; made in house
T1 sequence (O00499 520-593 limits assumed): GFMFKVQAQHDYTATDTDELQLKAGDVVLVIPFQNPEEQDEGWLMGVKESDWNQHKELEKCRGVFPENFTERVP
Method: The weighted average chemical shift differences were calculated as described by [Garrett et al. (1997)] - i.e., (ΔH^2 + (ΔN×0.2)^2)^1/2, with ΔH and ΔN the chemical shift changes for ^1H and ^15N, respectively. Dissociation constants were obtained by fitting the chemical shift perturbation data to the following equation Δδobs = Δδmax(a + b + Kd−((a + b + Kd)^2−4ab)^1/2)/2a where Δδobs is the weighted average of the chemical shifts in the free and bound states and Δδmax is the maximal signal change upon saturation. Kd is the dissociation constant, a and b are the total peptide and BIN1 SH3 concentrations, respectively. Kd were averaged based on chemical shift perturbations of 7 distinct resonances.
Labeled resonances correspond to the major chemical shift perturbations, color coded as in Figure 4A. Enlarged regions of the superimposed spectra show 3 resonances involved in the interaction.
Det ail o f o ver la id 1H-15N HSQC spe ct ra o f BIN1 SH3 do ma in, in t he prese nce o f increa s ing a mo unt o f Tau(210-240) pept ide, mo lar rat io s pe pt ide/BIN1 SH3 0, 0.5, 1, 2, 4, 8 and 12 (co lo r sca le fro m purp le t o gray), o r o f p ho spho-Tau(210-240) pept ide, sa me mo lar rat ios (sa me co lo r sca le). A spect rum is reco rded fo r each t it rat io n po int . […]

[2] = tested on: BIN1 isoform 1; experiment: 1H-15N HSQC competition with intramolecular BIN1 SH3/CLAP interaction; type: binding; conditions: 1H-15N HSQC of BIN1 isoform 1 (0.08 mM), 20°C, 900 MHz, molar ratio 1:8
Method: NMR experiments were recorded on Bruker 950-MHz, 900-MHz, or 600-MHz spectrometers all equipped with a triple-resonance cryogenic probe. NMR measurements were performed in 50 mM sodium phosphate buffer, pH 7.3, 30 mM NaCl, 3 mM DTT and 10% D2O (NMR buffer). BIN1 SH3 domain backbone assignment has been previously reported ([Malki et al., 2017]). […] For side-chain assignment, additional 3D^15N NOESY-HSQC, 3D^15N-edited TOCSY, 3D (H)CCH TOCSY, and 3D H(C)CH TOCSY experiments were recorded. A 3D ^13C-edited NOESY was further used for side-chain assignment validation. All assignment experiments were recorded at 5°C. Chemical shift values (Supplementary Table S1) were directly transferred at 20°C, because the differences of chemical shift values were small between 5 and 20°C. […] BIN1 isoform 1 ^1H-^15N HSQC spectra were recorded at 20°C at 900 MHz (0.08 mM sample) with 3096 points (direct) and 280 points (indirect), for spectral width of 14 ppm and 26 ppm, respectively, and 256 scans. A 3D F1 ^13C/^15N-filtered and F3 ^15N-edited NOESY-HSQC, with WATERGATE (WATER suppression by GrAdient-Tailored Excitation) scheme ([Piotto et al., 1992]), named noesyhsqcf3gpwgx13d, part of the Bruker pulse sequence library, was recorded at 20°C at 950 MHz for the detection of intermolecular NOEs to amide groups. […] Spectra were processed using TopSpin software (Bruker) and analyzed by CcpNmr Analysis ([Vranken et al., 2005]).
As NMR is sensitive to mobility, this equilibrium translated into detection of BIN1 SH3 domain signals only upon its release from the intramolecular interaction ([Malki et al., 2017]). […] Consequently, in the presence of the phosphorylated Tau peptide (210–240), BIN1 SH3 domain remained immobilized by the intramolecular interaction with BIN1 isoform1 CLAP domain, mainly adopting the closed conformation.
(A) ^1H-^15N HSQC spectrum of BIN1 isoform 1 (112 KDa, homodimer). […] (B) ^1H-^15N HSQC spectra of BIN1 isoform 1 in the presence of phospho-Tau (210–240), molar ratio 1:8. The signals corresponding to the isolated BIN1 SH3 domain were barely detected.

saturation / affinity in titration [1]: lo wer a ffin it y
Substance: phosphorylated Tau (210–240): Tau (210–240) phosphorylated by CDK2/CycA3; T212, T231, S235 full, T217 half-phosphorylated
competition with intramolecular BIN1 SH3/CLAP interaction [2]: not able to displace the intramolecular interaction of BIN1 SH3 with BIN1 CLAP domain | competition with intramolecular BIN1 SH3/CLAP interaction ([2]; listed as Phospho-Tau (210–240)): cannot compete with the intramolecular interaction of BIN1 SH3 with the CLAP domain | competition with intramolecular BIN1 SH3/CLAP interaction ([2]; listed as Tau (210–240) phosphorylated at four different sites (T212, T217, T231, and S235)): unable to compete with the intramolecular interaction of BIN1 SH3 domain with its CLAP domain | competition with intramolecular BIN1 SH3/CLAP interaction ([2]; listed as Tau (210–240) phosphorylated at multiple sites): not able to compete with the intra-molecular interaction of BIN1 SH3 with the CLAP domain as efficiently as its unphosphorylated counterpart
